According to PMC9814779, “A triple farnesoid X receptor and peroxisome proliferator-activated receptor α/δ activator reverses hepatic fibrosis in diet-induced NASH in mice” (Communications Chemistry, 2020):

What was measured:
[1] = tested on: FXR- and PPAR-regulated gene expression in HepG2 cells; experiment: FXR- and PPAR-regulated gene expression in HepG2 cells (qRT-PCR); assay type: cell-based, human; details: 12 h
Description: HepG2 cells (DSMZ) were grown in DMEM high glucose, supplemented with 10% FCS, 1 mM SP, penicillin (100 U/mL), and streptomycin (100 μg/mL) at 37 °C and 5% CO2 and seeded in 6-well plates (2 × 10^6 per well). After 24 h, medium was changed to Minimal Essential Medium supplemented with 1% charcoal-stripped FCS, penicillin (100 U/mL), streptomycin (100 μg/mL), and 2 mM L-glutamine. After an additional 24 h, cells were incubated with test compound 41 (0.1 µM, 0.3 µM, 1 μM), OCA (1 μM), or elafibranor (1 µM) dissolved in the same medium with 0.1% DMSO or medium with 0.1% DMSO alone as untreated control for 12 h, harvested, washed with cold phosphate-buffered saline (PBS), and then directly used for RNA extraction. C2C12 cells (American Type Culture Collection, ATCC) were grown in DMEM high glucose, supplemented with 10% FCS, 1 mM SP, penicillin (100 U/mL), and streptomycin (100 μg/mL) at 37 °C and 5% CO2 and seeded in 6-well plates (1 × 10^6 per well). Upon reaching confluence, medium was changed to Eagle’s Minimal Essential Medium supplemented with 2% horse serum, penicillin (100 U/mL), streptomycin (100 μg/mL), and 2 mM L-glutamine. Cells were then differentiated in this medium for 5 days before incubation with test compounds 41 (1 μM) or L165,041 (1 μM) dissolved in the same medium with 0.1% DMSO or medium with 0.1% DMSO alone as untreated control for 8 h. Cells were harvested, washed with cold PBS, and then directly used for RNA extraction. Total RNA was extracted from HepG2 cells or C2C12 cells using the total RNA Mini Kit (R6834-02, Omega Bio-Tek, Inc., Norcross, GA, USA). Two micrograms of extracted RNA were then reverse-transcribed into cDNA with the High-Capacity cDNA Reverse Transcription Kit (4368814, Thermo Fischer Scientific, Inc.). FXR- and PPAR-regulated gene expression was then studied by quantitative real-time PCR (qRT-PCR) analysis with a StepOnePlus System (Life Technologies, Carlsbad, CA, USA) using PowerSYBRGreen (Life Technologies; 12.5 μL per well). Each sample was set up in duplicates and repeated in four independent experiments. Data were analyzed by the comparative ΔΔCT method with glyceraldehyde 3-phosphate dehydrogenase (GAPDH) as reference gene. The following primers were used for HepG2 cells (human genes): hGAPDH: 5 ′-ATATGATTCCACCCATGGCA (fw), 5′-GATGATGACCCTTTTGGCTC (rev); hSHP: 5′-GCTGTCTGGAGTCCTTCTGG (fw), 5′-CCAATGATAGGGCGAAAGAAGAG (rev); hCYP7A1: 5′-CACCTTGAGGACGGTTCCTA (fw), 5′-CGATCCAAAGGGCATGTAGT (rev); hBSEP: 5′-CATGGTGCAAGAAGTGCTGAGT (fw), 5′-AAGCGATGAGCAACTGAAATGAT (rev); hACOX: 5′-ACT CGC AGC CAG CGT TAT G (fw), 5′-AGG GTC AGC GAT GCC AAA C (rev); hPDK4: 5′-AGAGCCTGATGGATTTGGTG (fw), 5′-GCTTGGGTTTCCTGTCTGTG (rev); hCPT1: 5′-ACAGTCGGTGAGGCCTCTTAT (fw), 5′-TCTTGCTGCCTGAATGTGAGT (rev); hFGF21: 5′-ATGGATCGCTCCACTTTGACC (fw), 5′-GGGCTTCGGACTGGTAAACAT (rev). The following primers were used for C2C12 cells (murine genes)[36]: mGAPDH: 5′-CGACTTCAACAGCAACTCCCACTCTTCC (fw), 5′-TGGGTGGTCCAGGGTTTCTTACTCCTT (rev); mPCK: 5′-TGTTTACTGGGAAGGCATCG (fw), 5′-CAGAATCTCGAGTTGGGATGG (rev); mGLUT3: 5′-CGTCCTTGAAGATTCCTGTTGA (fw), 5′-GTC ACC CAA CTA CGT CCA G (rev); mLPL: 5′-GTCAGGTTCTCTCTTGTACAGG (fw), 5′-TCTAACTGCCACTTCAACCAC (rev).

DIO NASH = details: cited from earlier work
[2] = target: T1, human FXR:retinoid X receptor (RXR) heterodimer (Homo sapiens, UniProt Q96RI1); experiment: Full-length FXR reporter gene assay (BSEP response element) in HeLa cells; assay type: cell-based; design: Emax: dose or concentration left out as unconfirmed
T1 construct: pcDNA3-hFXR[32] and pSG5-hRXR[33] served for receptor overexpression in the full-length FXR assay; expressed in transfected cells; host or cells: HeLa

[3] = HepG2, 1 µM, vs. vehicle-treated cells

T1 sequence (P19793 whole entry): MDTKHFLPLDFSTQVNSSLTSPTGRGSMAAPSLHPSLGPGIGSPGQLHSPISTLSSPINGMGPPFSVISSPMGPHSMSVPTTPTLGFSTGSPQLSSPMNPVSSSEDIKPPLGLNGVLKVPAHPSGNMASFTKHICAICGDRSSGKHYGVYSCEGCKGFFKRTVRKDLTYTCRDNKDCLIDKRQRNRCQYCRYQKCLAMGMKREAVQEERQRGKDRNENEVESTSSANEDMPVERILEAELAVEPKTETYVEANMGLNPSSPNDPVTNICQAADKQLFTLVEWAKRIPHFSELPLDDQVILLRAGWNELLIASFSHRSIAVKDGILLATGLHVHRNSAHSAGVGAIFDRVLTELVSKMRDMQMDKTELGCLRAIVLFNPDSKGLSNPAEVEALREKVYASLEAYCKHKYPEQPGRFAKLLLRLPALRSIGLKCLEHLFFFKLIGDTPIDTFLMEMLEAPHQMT
T1 sequence (Q96RI1 whole entry): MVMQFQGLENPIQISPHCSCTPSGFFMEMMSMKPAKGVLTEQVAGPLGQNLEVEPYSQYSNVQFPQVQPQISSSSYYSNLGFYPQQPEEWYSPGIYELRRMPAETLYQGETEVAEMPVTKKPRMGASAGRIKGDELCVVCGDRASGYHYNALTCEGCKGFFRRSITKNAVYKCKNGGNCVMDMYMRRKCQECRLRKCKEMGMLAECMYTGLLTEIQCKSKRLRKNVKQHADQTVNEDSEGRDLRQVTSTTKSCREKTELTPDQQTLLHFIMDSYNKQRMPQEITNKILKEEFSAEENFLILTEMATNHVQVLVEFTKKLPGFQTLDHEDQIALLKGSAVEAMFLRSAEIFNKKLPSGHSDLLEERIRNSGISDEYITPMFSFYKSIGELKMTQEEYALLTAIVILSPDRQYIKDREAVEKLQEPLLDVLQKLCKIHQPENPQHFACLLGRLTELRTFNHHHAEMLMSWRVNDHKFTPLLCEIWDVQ

Structure (SMILES) | mRNA expression of FXR-regulated genes (BSEP, SHP, CYP7A1) [1, 3] | mRNA expression of PPAR-regulated genes (ACOX, PDK4, CPT1, FGF21) [1, 3] | effects in DIO NASH (DIO NASH) | Emax ([2]; HeLa, read-out: max. rel. act. FXR) | EC50 ([2]; HeLa, mean ± SEM, n = 3, read-out: EC50 [μM] FXR) | FXR activation efficacy compared to OCA ([2]; reporter gene assay and mRNA expression levels) | dose dependence of BSEP, PDK4 and CPT1 expression ([1]; HepG2, 0.1 µM, 0.3 µM, 1 μM)
CC[C@H]1[C@@H](O)[C@@H]2[C@H](CC[C@]3(C)[C@@H]([C@H](C)CCC(=O)O)CC[C@@H]23)[C@@]2(C)CC[C@@H](O)C[C@@H]12 [OCA, 6α-ethylchenodeoxycholic acid, reference compound] | upregulation of BSEP and small heterodimer partner (SHP) mRNA as well as downregulation of CYP7A1 | slightly induced ACOX and FGF21 expression | pronounced anti-steatotic activity and slight anti-fibrotic effects |  |  |  | 
CC(C)(C)c1ccc(C(=O)Nc2cccc(CCC(=O)O)c2)c(NC(=O)c2ccc(-c3ccco3)cc2)c1 [compound 41, 3-(3-[4-{tert-Butyl}-2-{4-(2-furyl)}benzamido]phenyl)propanoic acid] | upregulation of BSEP and small heterodimer partner (SHP) mRNA as well as downregulation of CYP7A1 |  |  | 19% | 0.015 ± 0.002 µM | approximately 1/5 | dose-dependent effects
